Experimental data reported in ChEMBL document CHEMBL4177534, “Discovery and evaluation of 1H-pyrrolo[2,3-b]pyridine based selective and reversible small molecule BTK inhibitors for the treatment of rheumatoid arthritis” (Bioorg Med Chem Lett, 2017).
≈ marks a conversion by molar mass, not a printed value.

Assays:
[1] = target: Serine/threonine-protein kinase 4 (Homo sapiens) (UniProt Q13043); assay: Inhibition of recombinant human full length N-terminal GST-tagged MST1 expressed in baculovirus infected Sf9 cells assessed as change in enzyme activity at 1 uM in presence of 1 uM ATP relative to control; parameters: scale not given: the % may be the effect or the level left
[2] = target: Platelet-derived growth factor receptor beta (Homo sapiens) (UniProt P09619); assay: Inhibition of recombinant human full length N-terminal GST-tagged PDGFRbeta (unknown origin) expressed in baculovirus infected Sf9 cells assessed as change in enzyme activity at 1 uM in presence of 1 uM ATP relative to control; parameters: scale not given: the % may be the effect or the level left
[3] = target: Mitogen-activated protein kinase 14 (Homo sapiens) (UniProt Q16539); assay: Inhibition of recombinant human full length N-terminal GST-tagged p38alpha expressed in baculovirus infected Sf9 cells assessed as change in enzyme activity at 1 uM in presence of 1 uM ATP relative to control; parameters: scale not given: the % may be the effect or the level left
[4] = Equilibrium aqueous solubility of the compound at pH 2.1; type: physicochemical
[5] = target: Proto-oncogene tyrosine-protein kinase Src (Homo sapiens) (UniProt P12931); assay: Inhibition of SRC (unknown origin) assessed as change in enzyme activity in presence of 1 uM ATP relative to control; parameters: scale not given: the % may be the effect or the level left
Mus musculus [6] = assay: Ex-vivo inhibition of BTK in C57BL/6J mouse assessed as anti-mouse IgD antibody stimulated BCR mediated CD69 level in whole blood isolated from 30 mg/kg, po bid treated mouse measured after 6 hrs post first dose by flow cytometry relative to control; type: functional; parameters: scale not given: the % may be the effect or the level left
[7] = target: Inhibitor of nuclear factor kappa-B kinase subunit beta (Homo sapiens) (UniProt O14920); assay: Inhibition of recombinant human N-terminal GST-tagged IKKbeta expressed in baculovirus infected Sf9 cells assessed as change in enzyme activity at 1 uM in presence of 1 uM ATP relative to control; parameters: scale not given: the % may be the effect or the level left
[8] = target: Tyrosine-protein kinase ITK/TSK (Homo sapiens, UniProt Q08881); assay: Inhibition of recombinant human full length ITK preincubated for 10 mins followed by Tk-biotin peptide substrate addition after 60 mins by TR-FRET assay
[9] = target: Mitogen-activated protein kinase 8 (Mus musculus) (UniProt Q91Y86); assay: Inhibition of recombinant mouse N-terminal GST-tagged JNK1 expressed in baculovirus infected Sf9 cells assessed as change in enzyme activity at 1 uM in presence of 1 uM ATP relative to control; parameters: scale not given: the % may be the effect or the level left
[10] = target: Receptor-type tyrosine-protein kinase FLT3 (Homo sapiens) (UniProt P36888); assay: Inhibition of recombinant human N-terminal GST-tagged FLT3 (571 to 993 residues) expressed in baculovirus infected Sf9 cells assessed as change in enzyme activity at 1 uM in presence of 2 uM ATP relative to control; parameters: scale not given: the % may be the effect or the level left
[11] = target: Vascular endothelial growth factor receptor 3 (Homo sapiens) (UniProt P35916); assay: Inhibition of recombinant human N-terminal GST-tagged FLT4 (800 to end residues) expressed in baculovirus infected Sf9 cells assessed as change in enzyme activity at 1 uM in presence of 2 uM ATP relative to control; parameters: scale not given: the % may be the effect or the level left
[12] = target: Tyrosine-protein kinase BTK (Mus musculus, UniProt P35991); assay: Inhibition of C57BL/6J mouse BTK assessed as decrease in anti-mouse IgM antibody stimulated BCR mediated CD69 upregulation preincubated for 30 mins followed by antibody challenge after 18 to 24 hrs by flow cytometry
[13] = Metabolic stability in mouse liver microsomes assessed as metabolism rate; type: ADME, microsome
[14] = Cmax in mouse at 10 mg/kg, po; type: ADME, organism-based; parameters: dose 10 mg/kg, route oral; details: in vivo
[15] = Oral bioavailability in mouse at 10 mg/kg; type: ADME, organism-based; details: in vivo
[16] = target: Tyrosine-protein kinase Blk (Homo sapiens) (UniProt P51451); assay: Inhibition of recombinant human full length N-terminal GST-tagged BLK expressed in baculovirus infected Sf9 cells assessed as change in enzyme activity at 1 uM in presence of 1 uM ATP relative to control; parameters: scale not given: the % may be the effect or the level left
[17] = Equilibrium aqueous solubility of the compound at pH 7.4; type: physicochemical
[18] = target: Glycogen synthase kinase-3 beta (Homo sapiens) (UniProt P49841); assay: Inhibition of recombinant human full length N-terminal GST/His tagged GSK3beta expressed in baculovirus infected Sf9 cells assessed as change in enzyme activity at 1 uM in presence of 1 uM ATP relative to control; parameters: scale not given: the % may be the effect or the level left
[19] = target: MAP kinase-activated protein kinase 3 (Homo sapiens) (UniProt Q16644); assay: Inhibition of recombinant human full length N-terminal GST-tagged MAPKAPK3 expressed in baculovirus infected Sf9 cells assessed as change in enzyme activity at 1 uM in presence of 1 uM ATP relative to control; parameters: scale not given: the % may be the effect or the level left
Mus musculus [20] = assay: Ex-vivo inhibition of BTK in C57BL/6J mouse assessed as anti-mouse IgD antibody stimulated BCR mediated CD69 level in whole blood isolated from 30 mg/kg, po bid treated mouse measured after 24 hrs post first dose by flow cytometry relative to control; type: functional; parameters: scale not given: the % may be the effect or the level left
[21] = Metabolic stability in rat liver microsomes assessed as metabolism rate; type: ADME, microsome
[22] = target: Tyrosine-protein kinase Tec (Homo sapiens) (UniProt P42680); assay: Inhibition of recombinant full length N-terminal GST-tagged TEC (unknown origin) expressed in baculovirus infected Sf9 cells assessed as change in enzyme activity at 1 uM in presence of 2 uM ATP relative to control; parameters: scale not given: the % may be the effect or the level left
[23] = target: Serine/threonine-protein kinase Chk1 (Homo sapiens) (UniProt O14757); assay: Inhibition of recombinant human full length N-terminal GST/His tagged CHK1 expressed in baculovirus infected Sf9 cells assessed as change in enzyme activity at 1 uM in presence of 1 uM ATP relative to control; parameters: scale not given: the % may be the effect or the level left
[24] = target: Aurora kinase A (Homo sapiens) (UniProt O14965); assay: Inhibition of recombinant full length N-terminal GST-tagged AURORA A (unknown origin) expressed in baculovirus infected Sf9 cells assessed as change in enzyme activity at 1 uM in presence of 2 uM ATP relative to control; parameters: scale not given: the % may be the effect or the level left
[25] = target: cAMP-dependent protein kinase catalytic subunit alpha (Homo sapiens) (UniProt P17612); assay: Inhibition of recombinant human full length N-terminal GST-tagged PKACalpha expressed in baculovirus infected Sf9 cells assessed as change in enzyme activity at 1 uM in presence of 1 uM ATP relative to control; parameters: scale not given: the % may be the effect or the level left
[26] = target: Cyclin-dependent kinase 1/Cyclin A1 (Homo sapiens) (UniProt P06493+P78396); assay: Inhibition of recombinant human full length N-terminal GST-tagged CDK1/CyclinA1 expressed in baculovirus infected Sf9 cells assessed as change in enzyme activity at 1 uM in presence of 1 uM ATP relative to control; parameters: scale not given: the % may be the effect or the level left
[27] = target: Tyrosine-protein kinase JAK2 (Homo sapiens, UniProt O60674); assay: Inhibition of JAK2 (unknown origin)
[28] = target: Tyrosine-protein kinase BTK (Homo sapiens, UniProt Q06187); assay: Inhibition of human BTK assessed as decrease in […] antibody stimulated BCR mediated CD69 upregulation in whole blood preincubated for 1 hr followed by antibody challenge after 4 hrs by flow cytometry
[29] = target: Mitogen-activated protein kinase kinase kinase 9 (Homo sapiens) (UniProt P80192); assay: Inhibition of recombinant human N-terminal GST-tagged MLK1 (1 to 433 residues) expressed in baculovirus infected Sf9 cells assessed as change in enzyme activity at 1 uM in presence of 2 uM ATP relative to control; parameters: scale not given: the % may be the effect or the level left

Sequence of Tyrosine-protein kinase Tec (Homo sapiens) (P42680 whole entry): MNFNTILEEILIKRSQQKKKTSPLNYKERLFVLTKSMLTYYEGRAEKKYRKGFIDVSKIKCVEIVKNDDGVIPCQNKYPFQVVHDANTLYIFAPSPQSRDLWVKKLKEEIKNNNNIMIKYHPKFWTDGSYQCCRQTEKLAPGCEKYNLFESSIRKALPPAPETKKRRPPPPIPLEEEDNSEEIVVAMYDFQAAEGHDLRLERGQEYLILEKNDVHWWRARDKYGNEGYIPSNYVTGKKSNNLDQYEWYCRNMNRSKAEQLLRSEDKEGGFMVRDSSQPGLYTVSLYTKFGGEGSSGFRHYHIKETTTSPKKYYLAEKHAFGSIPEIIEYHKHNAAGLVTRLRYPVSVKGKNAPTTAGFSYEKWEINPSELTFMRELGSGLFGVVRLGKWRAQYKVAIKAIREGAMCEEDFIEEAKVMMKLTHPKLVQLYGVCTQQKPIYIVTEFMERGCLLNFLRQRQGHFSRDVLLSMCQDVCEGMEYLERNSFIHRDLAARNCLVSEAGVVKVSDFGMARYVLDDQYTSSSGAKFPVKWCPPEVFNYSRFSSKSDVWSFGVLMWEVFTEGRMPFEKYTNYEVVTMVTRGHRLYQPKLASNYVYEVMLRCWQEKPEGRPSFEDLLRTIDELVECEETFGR
Sequence of Serine/threonine-protein kinase 4 (Homo sapiens) (Q13043 whole entry): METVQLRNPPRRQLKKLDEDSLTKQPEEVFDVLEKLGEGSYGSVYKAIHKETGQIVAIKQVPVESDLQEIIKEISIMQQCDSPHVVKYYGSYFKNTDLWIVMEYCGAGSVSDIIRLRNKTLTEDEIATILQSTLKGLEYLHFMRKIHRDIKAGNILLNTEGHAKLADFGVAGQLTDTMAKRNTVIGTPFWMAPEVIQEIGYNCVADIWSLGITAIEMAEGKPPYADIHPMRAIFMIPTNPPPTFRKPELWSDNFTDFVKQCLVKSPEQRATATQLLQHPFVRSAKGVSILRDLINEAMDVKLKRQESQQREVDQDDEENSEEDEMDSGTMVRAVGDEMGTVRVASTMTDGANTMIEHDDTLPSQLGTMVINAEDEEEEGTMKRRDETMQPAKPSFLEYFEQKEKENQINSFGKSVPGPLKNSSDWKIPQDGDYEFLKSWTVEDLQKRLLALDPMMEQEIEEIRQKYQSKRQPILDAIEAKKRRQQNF
Sequence of Serine/threonine-protein kinase Chk1 (Homo sapiens) (O14757 whole entry): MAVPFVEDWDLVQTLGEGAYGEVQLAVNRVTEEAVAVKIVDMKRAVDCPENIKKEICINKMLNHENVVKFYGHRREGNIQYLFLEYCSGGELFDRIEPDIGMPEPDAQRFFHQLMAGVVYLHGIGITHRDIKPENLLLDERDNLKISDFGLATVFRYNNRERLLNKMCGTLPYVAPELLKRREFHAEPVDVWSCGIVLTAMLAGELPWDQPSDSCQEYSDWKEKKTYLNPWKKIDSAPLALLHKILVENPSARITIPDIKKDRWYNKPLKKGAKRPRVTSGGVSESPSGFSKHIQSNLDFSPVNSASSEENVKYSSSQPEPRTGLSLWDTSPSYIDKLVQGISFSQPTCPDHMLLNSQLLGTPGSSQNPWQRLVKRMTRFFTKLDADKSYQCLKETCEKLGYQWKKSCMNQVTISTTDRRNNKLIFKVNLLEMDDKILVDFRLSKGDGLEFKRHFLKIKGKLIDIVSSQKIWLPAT
Sequence of Inhibitor of nuclear factor kappa-B kinase subunit beta (Homo sapiens) (O14920 whole entry): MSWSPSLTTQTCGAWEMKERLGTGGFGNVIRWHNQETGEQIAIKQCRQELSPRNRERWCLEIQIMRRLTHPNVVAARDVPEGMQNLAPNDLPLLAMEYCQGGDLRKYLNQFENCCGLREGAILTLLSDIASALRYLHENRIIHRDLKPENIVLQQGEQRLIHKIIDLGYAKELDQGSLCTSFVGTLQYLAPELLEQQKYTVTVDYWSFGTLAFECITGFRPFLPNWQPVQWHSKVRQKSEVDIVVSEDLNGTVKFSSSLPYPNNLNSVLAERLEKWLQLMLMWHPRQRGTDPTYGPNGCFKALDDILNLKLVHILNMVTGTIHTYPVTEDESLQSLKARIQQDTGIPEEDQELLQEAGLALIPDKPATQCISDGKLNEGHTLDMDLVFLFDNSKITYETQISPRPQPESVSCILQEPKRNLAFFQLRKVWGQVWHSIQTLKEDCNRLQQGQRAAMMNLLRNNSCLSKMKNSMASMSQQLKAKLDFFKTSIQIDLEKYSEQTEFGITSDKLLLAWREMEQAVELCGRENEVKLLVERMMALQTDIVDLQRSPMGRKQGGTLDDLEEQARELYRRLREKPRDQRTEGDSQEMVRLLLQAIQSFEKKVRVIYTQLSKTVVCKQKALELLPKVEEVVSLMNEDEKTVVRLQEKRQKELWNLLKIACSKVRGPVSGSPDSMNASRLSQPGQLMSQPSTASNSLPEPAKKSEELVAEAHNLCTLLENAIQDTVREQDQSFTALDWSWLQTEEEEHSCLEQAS
Sequence of Aurora kinase A (Homo sapiens) (O14965 whole entry): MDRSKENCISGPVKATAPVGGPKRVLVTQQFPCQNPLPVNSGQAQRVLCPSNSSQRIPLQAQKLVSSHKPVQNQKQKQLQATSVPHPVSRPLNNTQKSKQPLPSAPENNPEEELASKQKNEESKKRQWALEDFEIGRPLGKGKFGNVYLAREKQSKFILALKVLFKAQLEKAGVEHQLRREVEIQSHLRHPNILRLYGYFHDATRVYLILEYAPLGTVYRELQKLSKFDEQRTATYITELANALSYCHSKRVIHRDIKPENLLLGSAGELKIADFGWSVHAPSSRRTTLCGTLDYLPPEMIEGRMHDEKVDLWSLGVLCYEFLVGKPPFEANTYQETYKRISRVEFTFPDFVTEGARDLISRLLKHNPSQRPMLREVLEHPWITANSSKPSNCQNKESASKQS
Sequence of Tyrosine-protein kinase ITK/TSK (Q08881 whole entry): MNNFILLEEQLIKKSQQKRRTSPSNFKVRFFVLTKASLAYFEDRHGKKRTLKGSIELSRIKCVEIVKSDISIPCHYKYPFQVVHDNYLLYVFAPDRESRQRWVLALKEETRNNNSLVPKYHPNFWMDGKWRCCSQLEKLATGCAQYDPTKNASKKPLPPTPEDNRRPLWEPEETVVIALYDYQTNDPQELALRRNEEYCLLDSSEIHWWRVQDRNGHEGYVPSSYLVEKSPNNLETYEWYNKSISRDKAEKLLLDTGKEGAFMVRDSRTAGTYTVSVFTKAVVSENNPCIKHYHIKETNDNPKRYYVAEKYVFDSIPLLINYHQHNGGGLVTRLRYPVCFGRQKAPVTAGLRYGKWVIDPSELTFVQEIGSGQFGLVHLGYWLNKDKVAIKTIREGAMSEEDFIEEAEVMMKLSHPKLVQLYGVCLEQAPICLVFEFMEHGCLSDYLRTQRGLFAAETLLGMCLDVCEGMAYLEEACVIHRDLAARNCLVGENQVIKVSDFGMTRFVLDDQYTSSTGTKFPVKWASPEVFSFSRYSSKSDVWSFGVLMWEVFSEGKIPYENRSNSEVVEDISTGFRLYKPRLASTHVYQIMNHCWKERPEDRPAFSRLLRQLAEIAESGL
Sequence of Mitogen-activated protein kinase 8 (Mus musculus) (Q91Y86 whole entry, the tested form may be a part): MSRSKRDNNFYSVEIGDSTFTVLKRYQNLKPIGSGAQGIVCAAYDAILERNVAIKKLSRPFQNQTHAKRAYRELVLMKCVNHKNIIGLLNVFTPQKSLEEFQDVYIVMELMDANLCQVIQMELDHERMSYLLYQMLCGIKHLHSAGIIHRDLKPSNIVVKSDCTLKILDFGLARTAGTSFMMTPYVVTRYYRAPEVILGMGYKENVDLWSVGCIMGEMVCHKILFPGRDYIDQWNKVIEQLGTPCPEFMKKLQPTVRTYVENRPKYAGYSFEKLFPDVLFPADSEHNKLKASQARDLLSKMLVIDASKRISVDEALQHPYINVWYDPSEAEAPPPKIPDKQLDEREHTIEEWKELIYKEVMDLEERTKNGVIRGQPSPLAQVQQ
Sequence of Receptor-type tyrosine-protein kinase FLT3 (Homo sapiens) (P36888 whole entry, the tested form may be a part): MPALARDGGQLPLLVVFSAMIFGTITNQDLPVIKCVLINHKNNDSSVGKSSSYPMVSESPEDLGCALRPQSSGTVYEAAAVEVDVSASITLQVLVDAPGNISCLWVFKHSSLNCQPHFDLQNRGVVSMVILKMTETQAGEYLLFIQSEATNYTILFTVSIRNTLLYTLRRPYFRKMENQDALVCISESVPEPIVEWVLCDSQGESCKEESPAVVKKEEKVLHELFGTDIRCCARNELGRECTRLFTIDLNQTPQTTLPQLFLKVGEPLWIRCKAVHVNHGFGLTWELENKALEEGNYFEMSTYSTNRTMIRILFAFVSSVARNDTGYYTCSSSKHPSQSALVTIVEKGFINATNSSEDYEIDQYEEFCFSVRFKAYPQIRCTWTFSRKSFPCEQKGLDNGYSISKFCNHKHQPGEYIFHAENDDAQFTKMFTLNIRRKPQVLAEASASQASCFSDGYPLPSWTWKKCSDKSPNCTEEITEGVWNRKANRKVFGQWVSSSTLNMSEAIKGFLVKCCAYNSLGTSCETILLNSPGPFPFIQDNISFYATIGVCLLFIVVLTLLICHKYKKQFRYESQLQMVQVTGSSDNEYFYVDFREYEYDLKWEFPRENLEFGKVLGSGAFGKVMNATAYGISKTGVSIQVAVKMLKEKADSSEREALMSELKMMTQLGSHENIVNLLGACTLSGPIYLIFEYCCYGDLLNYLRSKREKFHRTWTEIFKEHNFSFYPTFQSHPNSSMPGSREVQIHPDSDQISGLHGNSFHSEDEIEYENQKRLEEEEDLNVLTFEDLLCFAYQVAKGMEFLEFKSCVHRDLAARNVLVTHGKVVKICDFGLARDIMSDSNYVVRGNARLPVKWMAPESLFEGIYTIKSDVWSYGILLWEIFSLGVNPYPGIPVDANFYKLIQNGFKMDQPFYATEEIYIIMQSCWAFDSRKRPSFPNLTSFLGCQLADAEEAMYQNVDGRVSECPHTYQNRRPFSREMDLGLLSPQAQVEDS

## CCN1CCN(Cc2ccc(-c3cc4c(-c5cccc(N6CCOc7cc(C8CC8)cc(F)c7C6=O)c5CO)ccnc4[nH]3)nc2)CC1
[1]
  Activity: -3%
[2]
  Activity: 2%
[3]
  Activity: -7%
[4]
  solubility thermodynamic: > 2000 µM
[5]
  Activity: -33%
Mus musculus [6]
  Activity: 81%
[7]
  Activity: 0%
[8]
  IC50: > 10000 nM
[9]
  Activity: 1%
[10]
  Activity: -5%
[11]
  Activity: -3%
[12]
  IC50: 8.4 nM
[13]
  Drug metabolism: < 0.04 nmol/min/mg
[14]
  Cmax: 2.3 µM
[15]
  bioavailability: 51%
[16]
  Activity: 1%
[17]
  solubility thermodynamic: 15 µM (≈ 9.7 µg/mL)
[18]
  Activity: 2%
[19]
  Activity: -4%
Mus musculus [20]
  Activity: 47%
[21]
  Drug metabolism: <= 0.04 nmol/min/mg
[22]
  Activity: -35%
[23]
  Activity: -14%
[24]
  Activity: -2%
[25]
  Activity: -2%
[26]
  Activity: 1%
[27]
  IC50: > 10000 nM
[28]
  IC50: 83.5 nM
[29]
  Activity: -6%

## O=C1c2c(F)cc(C3CC3)cc2OCCN1c1cccc(-c2ccnc3[nH]c(C4=CCN(C5COC5)CC4)cc23)c1CO
[1]
  Activity: 5%
[2]
  Activity: -3%
[3]
  Activity: 4%
[4]
  solubility thermodynamic: > 2000 µM
[5]
  Activity: -26%
Mus musculus [6]
  Activity: 56%
[7]
  Activity: 1%
[8]
  IC50: > 10000 nM
[9]
  Activity: -4%
[10]
  Activity: -5%
[11]
  Activity: -3%
[12]
  IC50: 41.9 nM
[13]
  Drug metabolism: < 0.04 nmol/min/mg
[14]
  Cmax: 7.6 µM
[15]
  bioavailability: 49%
[16]
  Activity: 3%
[17]
  solubility thermodynamic: 31 µM (≈ 18 µg/mL)
[18]
  Activity: -2%
[19]
  Activity: 3%
Mus musculus [20]
  Activity: 9.5%
[21]
  Drug metabolism: < 0.04 nmol/min/mg
[22]
  Activity: -31%
[23]
  Activity: -3%
[24]
  Activity: -10%
[25]
  Activity: 0%
[26]
  Activity: -3%
[27]
  IC50: > 10000 nM
[28]
  IC50: 261 nM
[29]
  Activity: 2%
